# Results: US4000259A, “Cyclic dodecapeptide analogs of somatostatin and intermediates” (American Home Products Corporation, priority 1975, dated 1976)
# Columns and labels:
# insulin = assay: In vivo effect on insulin levels in nembutal-treated rats, radioimmunoassay; settings: nembutal 50 mg/kg i.p., compound subcutaneously 3100 μg/kg, blood 15 minutes after injection, control 171 ± 4
# Procedure: (§1) The effect on glucagon, growth hormone and insulin levels of the compound of Example 7 was determined by injecting rats weighing about 200-240 g first with nembutal intraperitoneally at a dose of 50 mg/kg then after 5 minutes injecting the rats subcutaneously with a solution of the compound of Example 7 in saline at a dose of 3.1 mg/kg per rat. Blood samples are taken 15 minutes after injection with the compound of Example 7. The glucagon, growth hormone and insulin levels were determined by radioimmunoassay.
# glucagon = settings: rats, nembutal 50 mg/kg i.p., compound subcutaneously 3100 μg/kg, blood 15 minutes after injection; control 10.5 ± 2
# Procedure: as §1
# growth hormone = assay: In vivo effect on growth hormone levels in nembutal-treated rats, radioimmunoassay; settings: nembutal 50 mg/kg i.p., compound subcutaneously 3100 μg/kg, blood 15 minutes after injection, control 296 ± 25
# Procedure: as §1
substance,measurement,setting,value
"L-Lysyl-L-lysyl-L-asparaginyl-L-phenylalanyl-L-phenylalanyl-L-tryptophyl-L-lysyl-L-threonyl-L-phenylalanyl-L-threonyl-L-seryl-L-aspartic acid cyclic (12β→1ε)-peptide, triacetate [Example 7]",Insulin,insulin,182 ± 16 μU/ml
same,Glucagon,glucagon,3.3 pg/mL
same,GH,growth hormone,227 ± 32 ng/kg
